This note sets out measurements from patent US20190031599A1, “INDANE DERIVATIVES AS MGLUR7 MODULATORS” (Takeda Pharmaceutical Company Limited, priority 2016, published 2019).

pEC50: −log10 of the molar value. Counter-ions that a name gives are not always drawn.

In this assay the target is T1, human mGluR7 (Homo sapiens, UniProt Q14831).
T1 construct: expressed in transfected cells
Description: mGluR7 assay: CRE-directed luciferase reporter gene assay, reduction of forskolin stimulated cAMP production. Format: cell-based. As to conditions: stable CHO cell line expressing the CRE-luc reporter and human mGluR7 genes; decrease of forskolin stimulated luminescence; 10-point concentration-response, duplicate wells. An outline of the steps: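 Stable CHO cell line co-expressing human mGluR7 and a CRE-luciferase reporter; compounds preincubated 15 min at 37 °C, then forskolin added and incubated 5 h at 37 °C. 10-point half-log concentration-response in duplicate, normalised to forskolin-alone (max) and forskolin plus tool mGluR7 agonist (min) controls.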
Background: In a reporter assay the amount or activity of a reporter protein is the signal.

T1 sequence (Q14831 35-915): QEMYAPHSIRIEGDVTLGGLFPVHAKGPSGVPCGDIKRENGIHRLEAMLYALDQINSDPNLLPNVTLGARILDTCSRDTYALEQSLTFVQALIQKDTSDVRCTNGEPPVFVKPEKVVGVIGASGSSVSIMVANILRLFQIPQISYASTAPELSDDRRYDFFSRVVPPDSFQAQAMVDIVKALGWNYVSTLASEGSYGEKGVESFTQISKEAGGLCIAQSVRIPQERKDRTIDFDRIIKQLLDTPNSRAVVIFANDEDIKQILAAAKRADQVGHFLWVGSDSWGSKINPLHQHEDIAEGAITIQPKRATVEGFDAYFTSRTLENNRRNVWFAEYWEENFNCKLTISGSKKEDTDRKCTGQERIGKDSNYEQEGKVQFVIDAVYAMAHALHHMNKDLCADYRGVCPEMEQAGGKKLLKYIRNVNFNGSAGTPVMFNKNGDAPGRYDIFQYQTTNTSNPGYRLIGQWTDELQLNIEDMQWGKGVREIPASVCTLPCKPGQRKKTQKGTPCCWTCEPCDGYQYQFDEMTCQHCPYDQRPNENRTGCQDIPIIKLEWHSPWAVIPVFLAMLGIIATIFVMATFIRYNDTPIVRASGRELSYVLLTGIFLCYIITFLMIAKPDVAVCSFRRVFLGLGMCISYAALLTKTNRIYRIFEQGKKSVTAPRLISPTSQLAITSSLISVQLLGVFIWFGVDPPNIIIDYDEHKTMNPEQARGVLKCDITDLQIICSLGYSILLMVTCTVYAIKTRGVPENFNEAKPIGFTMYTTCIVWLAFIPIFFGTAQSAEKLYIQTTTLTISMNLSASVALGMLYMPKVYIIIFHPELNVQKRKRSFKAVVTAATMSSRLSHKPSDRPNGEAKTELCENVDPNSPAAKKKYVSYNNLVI

`CC(C)C(C(=O)N[C@H]1Cc2ccccc2[C@@H]1N)c1ccc(Cl)cc1` (stereo partly drawn) [Example 20, N-[(1S,2S)-1-amino-2,3-dihydro-1H-inden-2-yl]-2-(4-chlorophenyl)-3-methylbutanamide hydrochloride] showed a pEC50 of 6.98.

For `C[C@H](C(=O)N[C@H]1Cc2ccccc2[C@@H]1NC(=O)OC(C)(C)C)c1ccc(F)cc1` [Example 21, tert-butyl N-[(1S,2S)-2-[(2S)-2-(4-fluorophenyl)propanamido]-2,3-dihydro-1H-inden-1-yl]carbamate], the pEC50 was 7.55.

`CN[C@H]1c2ccccc2C[C@@H]1NC(=O)[C@@H](C)c1ccccc1` [Example 22, (2S)—N-[(1S,2S)-1-(methylamino)-2,3-dihydro-1H-inden-2-yl]-2-phenylpropanamide] gave a pEC50 of 7.15.

For `C[C@H](C(=O)N[C@H]1Cc2ccccc2[C@@H]1NC(=O)OC(C)(C)C)c1ccc(F)cc1F` [Example 23, tert-butyl N-[(1S,2S)-2-[(2S)-2-(2,4-difluorophenyl)propanamido]-2,3-dihydro-1H-inden-1-yl]carbamate], the pEC50 was 7.74. This pEC50 is 0.59 log units higher than that of the compound before.

In turn, `C[C@H](C(=O)N[C@H]1Cc2ccccc2[C@@H]1N)c1ccc(F)cc1` [Example 24, (2S)—N-[(1S,2S)-1-amino-2,3-dihydro-1H-inden-2-yl]-2-(4-fluorophenyl)propanamide] gave a pEC50 of 7.18.

`C[C@H](C(=O)N[C@H]1Cc2ccccc2[C@@H]1N)c1ccc(F)cc1F` [Example 34, (2S)—N-[(1S,2S)-1-amino-2,3-dihydro-1H-inden-2-yl]-2-(2,4-difluorophenyl)propanamide] gave a pEC50 of 7.02.

`C[C@H](C(=O)N[C@@H]1Cc2ccccc2[C@H]1N)c1ccc(F)cc1F` [Example 35, (2S)—N-[(1R,2R)-1-amino-2,3-dihydro-1H-inden-2-yl]-2-(2,4-difluorophenyl)propanamide] had a pEC50 of 6.63.

Regarding `C[C@H](C(=O)N[C@H]1Cc2ccccc2[C@@H]1NCC1CCOCC1)c1ccc(F)cc1F` [Example 40, (2S)-2-(2,4-difluorophenyl)-N-[(1S,2S)-1-{[(oxan-4-yl)methyl]amino}-2,3-dihydro-1H-inden-2-yl]propanamide], the pEC50 is 7.64.

The compound `CCC(C(=O)N[C@@H]1Cc2ccccc2[C@H]1NC(=O)OC(C)(C)C)c1ccc(F)cc1F` (stereo partly drawn) [Example 41, tert-butyl N-[(1R,2R)-2-[2-(2,4-difluorophenyl)butanamido]-2,3-dihydro-1H-inden-1-yl]carbamate] gave a pEC50 of 6.67.

In turn, `CC[C@H](C(=O)N[C@H]1Cc2ccccc2[C@@H]1NC(=O)OC(C)(C)C)c1ccc(F)cc1` [Example 42, tert-butyl N-[(1S,2S)-2-[(2S)-2-(4-fluorophenyl)butanamido]-2,3-dihydro-1H-inden-1-yl]carbamate] gave a pEC50 of 7.89.

`CC[C@H](C(=O)N[C@@H]1Cc2ccccc2[C@H]1NC(=O)OC(C)(C)C)c1ccc(F)cc1` [Example 43, tert-butyl N-[(1R,2R)-2-[(2S)-2-(4-fluorophenyl)butanamido]-2,3-dihydro-1H-inden-1-yl]carbamate] had a pEC50 of 6.89.

Compound `C[C@H](C(=O)N[C@H]1Cc2ccccc2[C@@H]1NCC1CC1)c1ccc(F)cc1` [Example 47, (2S)—N-[(1S,2S)-1-[(cyclopropylmethyl)amino]-2,3-dihydro-1H-inden-2-yl]-2-(4-fluorophenyl)propanamide] gave a pEC50 of 7.68.

`CC[C@H](C(=O)N[C@H]1Cc2ccccc2[C@@H]1N)c1ccc(F)cc1` [Example 52, (2S)—N-[(1S,2S)-1-amino-2,3-dihydro-1H-inden-2-yl]-2-(4-fluorophenyl)butanamide] showed a pEC50 of 7.28.

Take `CC[C@H](C(=O)N[C@@H]1Cc2ccccc2[C@H]1N)c1ccc(F)cc1` [Example 53, (2S)—N-[(1R,2R)-1-amino-2,3-dihydro-1H-inden-2-yl]-2-(4-fluorophenyl)butanamide]: the pEC50 was 6.90.

With `COc1ccc(C(C)C(=O)N[C@H]2Cc3ccccc3[C@@H]2N)cc1` (stereo partly drawn) [Example 57, N-[(1S,2S)-1-amino-2,3-dihydro-1H-inden-2-yl]-2-(4-methoxyphenyl)propanamide hydrochloride], the pEC50 was 5.66.

Compound `CC(C(=O)N[C@H]1Cc2ccccc2[C@@H]1N)c1ccc(C(F)(F)F)cc1` (stereo partly drawn) [Example 58, N-[(1S,2S)-1-amino-2,3-dihydro-1H-inden-2-yl]-2-[4-(trifluoromethyl)phenyl]propanamide hydrochloride] had a pEC50 of 5.75.

For `C[C@H](C(=O)N[C@H]1Cc2ccccc2[C@@H]1NCC(F)(F)F)c1ccc(F)cc1F` [Example 59, (2S)-2-(2,4-difluorophenyl)-N-[(1S,2S)-1-[(2,2,2-trifluoroethyl)amino]-2,3-dihydro-1H-inden-2-yl]propanamide], the pEC50 is 8.15.

`CN[C@H]1c2ccccc2C[C@@H]1NC(=O)[C@@H](C)c1ccc(F)cc1` [Example 64, (2S)-2-(4-fluorophenyl)-N-[(1S,2S)-1-(methylamino)-2,3-dihydro-1H-inden-2-yl]propanamide] gave a negative-log EC50 (pEC50) of 7.35.

Take `C[C@H](C(=O)N[C@H]1Cc2ccccc2[C@@H]1N(C)C)c1ccc(F)cc1` [Example 74, (2S)—N-(trans)-[1-(dimethylamino)-2,3-dihydro-1H-inden-2-yl]-2-(4-fluorophenyl)propanamide]: the pEC50 was 7.03.

Consider `CC(F)(C(=O)N[C@H]1Cc2ccccc2[C@@H]1N)c1ccc(F)cc1` (stereo partly drawn) [Example 75, N-[(1S,2S)-1-amino-2,3-dihydro-1H-inden-2-yl]-2-fluoro-2-(4-fluorophenyl)propanamide], for which the pEC50 is 6.49.

`N[C@H]1c2ccccc2C[C@@H]1NC(=O)C1(c2ccccc2Cl)CC1` [Example 79, N-[(1S,2S)-1-amino-2,3-dihydro-1H-inden-2-yl]-1-(2-chlorophenyl)cyclopropane-1-carboxamide] had a pEC50 of 6.36.

Consider `CC(=O)N[C@H]1c2ccccc2C[C@@H]1NC(=O)[C@@H](C)c1ccc(F)cc1F` [Example 80, (2S)-2-(2,4-difluorophenyl)-N-[(1S,2S)-1-acetamido-2,3-dihydro-1H-inden-2-yl]propanamide], for which the pEC50 is 6.09.

Compound `COC1c2ccccc2C[C@@H]1NC(=O)[C@@H](NS(=O)(=O)c1c(C)noc1C)c1ccc(F)cc1` (stereo partly drawn) [Example 83, (2S)-2-(3,5-dimethyl-1,2-isoxazole-4-sulfonamido)-2-(4-fluorophenyl)-N-((trans)-1-methoxy-2,3-dihydro-1H-inden-2-yl)acetamide] gave a pEC50 of 7.59. Against the preceding compound, the pEC50 is 1.50 log units higher.

`N[C@H]1c2ccccc2C[C@@H]1NC(=O)C(c1ccc(F)cc1)C1CC1` (stereo partly drawn) [Example 86, N-[(1S,2S)-1-amino-2,3-dihydro-1H-inden-2-yl]-2-cyclopropyl-2-(4-fluorophenyl)acetamide] had a pEC50 of 6.14.

The compound `CC(C)(C)OC(=O)N[C@H]1c2ccccc2C[C@@H]1NC(=O)C(C)(C)c1ccc(F)cc1` [Example 87, tert-butyl N-[(1S,2S)-2-[2-(4-fluorophenyl)-2-methylpropanamido]-2,3-dihydro-1H-inden-1-yl]carbamate] had a pEC50 of 6.24. The pEC50 values of the last two compounds are within 0.2 log units of each other.

`CC(C)(C)OC(=O)N[C@H]1c2ccccc2C[C@@H]1NC(=O)C1(c2ccccc2)COC1` [Example 88, tert-butyl N-[(1S,2S)-2-(3-phenyloxetane-3-amido)-2,3-dihydro-1H-inden-1-yl]carbamate] showed a pEC50 of 7.28.

`C[C@H](C(=O)N[C@H]1Cc2ccccc2[C@@H]1NS(C)(=O)=O)c1ccc(F)cc1F` [Example 89, (2S)-2-(2,4-difluorophenyl)-N-[(1S,2S)-1-methanesulfonamido-2,3-dihydro-1H-inden-2-yl]propanamide]: the pEC50 is 5.79. Against the preceding compound, the pEC50 is 1.49 log units lower.

Turning to `C[C@H](C(=O)N[C@H]1Cc2ccccc2[C@@H]1NCC1CCC1)c1ccc(F)cc1F` [Example 90, (2S)—N-[(1S,2S)-1-[(cyclobutylmethyl)amino]-2,3-dihydro-1H-inden-2-yl]-2-(2,4-difluorophenyl)propanamide], the negative-log EC50 (pEC50) was 8.00.

`C[C@H](C(=O)N[C@H]1Cc2ccccc2[C@@H]1NC1CCC1)c1ccc(F)cc1F` [Example 91, (2S)—N-[(1S,2S)-1-(cyclobutylamino)-2,3-dihydro-1H-inden-2-yl]-2-(2,4-difluorophenyl)propanamide] showed a pEC50 of 7.42.

In turn, `C[C@H](C(=O)N[C@H]1Cc2ccccc2[C@@H]1NCc1ncccc1F)c1ccc(F)cc1F` [Example 92, (2S)-2-(2,4-difluorophenyl)-N-[(1S,2S)-1-{[(3-fluoropyridin-2-yl)methyl]amino}-2,3-dihydro-1H-inden-2-yl]propanamide] had a pEC50 of 8.15.

Take `CC(C)(C)OC(=O)N[C@H]1c2ccccc2C[C@@H]1NC(=O)C1(c2ccc(F)cc2)CCOCC1` [Example 94, tert-butyl N-[(1S,2S)-2-[4-(4-fluorophenyl)oxane-4-amido]-2,3-dihydro-1H-inden-1-yl]carbamate]: the pEC50 is 7.34. Against the preceding compound, the pEC50 is 0.81 log units lower.

As for `CN[C@@H]1c2ccccc2C[C@H]1NC(=O)[C@@H](C)c1ccc(F)cc1` [Example 95, (2S)-2-(4-fluorophenyl)-N-[(1R,2R)-1-(methylamino)-2,3-dihydro-1H-inden-2-yl]propanamide], the pEC50 is 8.05. Against the preceding compound, the pEC50 is 0.71 log units higher.

Regarding `COC1c2ccccc2C[C@@H]1NC(=O)[C@@H](NC(=O)C1CCOCC1)c1ccc(F)cc1` (stereo partly drawn) [Example 98, (2S)-2-(4-fluorophenyl)-N-(trans)-(1-methoxy-2,3-dihydro-1H-inden-2-yl)-2-[(oxan-4-yl)formamido]acetamide], the pEC50 was 8.40.

In turn, `CC(C)(C(=O)N[C@H]1Cc2ccccc2[C@@H]1N)c1ccc(F)cc1` [Example 99, N-[(1S,2S)-1-amino-2,3-dihydro-1H-inden-2-yl]-2-(4-fluorophenyl)-2-methylpropanamide] had a pEC50 of 5.66. Against the preceding compound, the pEC50 is 2.74 log units lower.

The compound `CC(C)(C)OC(=O)N[C@H]1c2ccccc2C[C@@H]1NC(=O)C(c1ccc(F)cc1F)N1CCC1` (stereo partly drawn) [Example 100, tert-butyl N-[(1S,2S)-2-[2-(azetidin-1-yl)-2-(2,4-difluorophenyl)acetamido]-2,3-dihydro-1H-inden-1-yl]carbamate] showed a pEC50 of 7.57. Against the preceding compound, the pEC50 is 1.91 log units higher.

As a reminder, the pEC50 is −log10 of the EC50, conventionally taken in molar units.
